Among the data in patent US6943170B2, “N-cycloalkylglycines as HIV protease inhibitors” (Bristol-Myers Squibb Company, priority 2002, dated 2005) are IC90 values, retold here.

The assay relates to HIV-1 (RF). The experiment in a line: HIV RNA assay: microplate based compound evaluation in HIV-1 infected MT-2 cells. The note with it: Human immunodeficiency virus 1, MT2, 72 h; HIV-1 (RF) infected MT-2 cells, 3 days culture; value used to standardize the virus inoculum; read-out: IC90 (concentration of compound required to reduce the HIV RNA level by 90%). The assay is classed as cell-based. On the procedure:
Plasmid PDAB 72 containing both gag and pol sequences of BH10 (bp 113-1816) cloned into PTZ 19R was prepared according to Erickson-Vitanen et al. AIDS Research and Human Retroviruses 1989, 5, 577. The plasmid was linearized with Bam HI prior to the generation of in vitro RNA transcripts using the Riboprobe Gemini system II kit (Promega) with T7 RNA polymerase. Synthesized RNA was purified by treatment with RNase free DNAse (Promega), phenol-chloroform extraction, and ethanol precipitation. RNA transcripts were dissolved in water, and stored at −70EC. The concentration of RNA was determined from the A260.
Biotinylated capture probes were purified by HPLC after synthesis on an Applied Biosystems (Foster city, Calif.) DNA synthesizer by addition of biotin to the 5N terminal end of the oligonucleotide, using the biotin-phosphoramidite reagent of Cocuzza, Tet. Lett. 1989, 30, 6287. […]
MT-2 and MT-4 cells were maintained in RPMI 1640 supplemented with 5% fetal calf serum (FCS) for MT-2 cells or 10% FCS for MT-4 cells, 2 mM L-glutamine and 50 μg/mL gentamycin, all from Gibco. […] Infectious titers of HIV-1 (RF) stocks were 1-3×10^7 PFU (plaque forming units)/mL as measured by plaque assay on MT-2 cells (see below). […]

Structures are written as SMILES. Values after ≈ are worked out from the molar mass of the structure shown.

With `Nc1ccn([C@H]2CC[C@@H](CO)O2)c(=O)n1` [ddC, dideoxycytidine], the IC90 stood at 0.2 µg/mL (≈ 0.947 µM).
